Data from patent US20260109944A1, “Culture Method for Organoids” (Koninklijke Nederlandse Akademie Van Wetenschappen, priority 2014, published 2026).

Assays:
human liver organoids = assay: Long-term expansion (passaging) of human liver organoids; format: cell-based
Protocol: Human liver cells isolated by collagenase dissociation were dissociated to single cell, counted and 3000 or 10000 cells were seeded per well in a 48 well plate. Mouse liver culture medium (ERFHNic) or medium supplemented with A8301 or A8301 and BMP7 or A8301 and BMP7 and Forskolin (FSK) was overlaid as indicated and organoids were allowed to grow. The cultures were split every week 7-10 days at a ratio of 1:4-1:6 dilution.
Human liver organoids were seeded in mouse medium supplemented with A8301 and with one of the CAMP activators as indicated in FIG. 4. Cholera toxin was used at a concentration of 100 ng/ml. Only the cultures that were treated with CAMP activators were able to be expanded >2 months (P8).
Liver cells were isolated by collagenase digestion as follows: tissue (0.5-1 cm^3) was minced, rinsed 2× with DMEM (Gibco) 1% FCS and incubated with the digestion solution (2.5 mg/ml collagenase D (Roche)+0.1 mg/ml DNase I (Sigma) in EBSS (Hyclone, Thermoscientific), for […] at 37° C. The digestion was stopped by adding cold DMEM 1% FCS and the suspension was then filtered through a 70 um Nylon cell strainer and spun 5 min at 300-400 g. The pellet was resuspended in DMEM 1% FCS and kept cold. Any material retained on the strainer was further digested for 10 min in Accutase (Innovative Cell Technologies) at 37° C. Then, the digestion was stopped and the cells were collected as before. The different fractions (collagenase and accutase) were mixed and washed with cold Advanced DMEM/F12 and spun at 300-400 g for 5 min. The cell pellet was mixed with Matrigel (BD bioscience) and 3000-10000 cells were seeded per well in a 48 well/plate. After Matrigel had solidified, culture medium was added. Culture media was based on AdDMEM/F12 (Invitrogen) supplemented with N2 and B27 without retinoic acid (both from Gibco), 1.25 mM N-Acetylcysteine (Sigma). 10 nM gastrin (Sigma) and the growth factors: 50 ng/ml EGF (Peprotech), 10% RSPO1 conditioned media (home-made), 100 ng/ml FGF10 (Peprotech). 25 ng/ml HGF, 10 mM Nicotinamide (Sigma), 5 uM TGF-beta inhibitor (A83.01 (Tocris)) and 10 uM FSK (Tocris). For the establishment of the culture, the first 3 days after isolation the medium was supplemented with 25 ng/ml Noggin (Peprotech), 30% Wnt CM (home-made prepared as described in (Barker and Huch 2010)), 10 uM Rock inhibitor (Y27632) and hES Cell cloning Recovery solution (Stemgent). Then, the medium was changed into a medium without Noggin, Wnt. Y27632, hES Cell cloning Recovery solution (Stemgent) while 25 ng/ml BMP7 (Peprotech) were supplemented on top. One week-10 days organoids were removed from the Matrigel, mechanically dissociated into small fragments, and transferred to fresh Matrigel. Passage was performed in 1:4-1:8 split ratio once per week for at least 6 months. […]

[1] = test system: LGR5 expression in human liver cultures; assay: qPCR analysis of LGR5 expression; format: cell-based; details: 4 week old cultures, presence vs absence of FSK
Protocol: (§1) Lgr5 expression was analysed in cultures grown in our defined culture medium by immunofluorescence and flow cytometry analysis. (FIG. 5A) Confocal image of a human liver organoid showing that the organoids are formed by epithelial derived cells positive for EPCAM (blue). The stem cell marker Lgr5 (green) was restricted to a subset of cells within the organoid, while the Wnt target gene EPHB2 (red) was broadly expressed, but colocalized with LGR5 as expected. Staining was performed on single cells isolated from a culture that had been cultured for >4 weeks in the presence or absence of FSK. Only in the presence of FSK Lgr5 cells could be readily detected as a 1-3% of the culture population. Experiment was performed in 2 independent human liver donor cultures. (FIG. 5C) qPCR analysis of the expression of LGR5 in 4 week old cultures treated in the presence or absence of FSK.

[2] = test system: Lgr5 cells in human liver cultures; assay: Flow cytometry analysis of LGR5 positive cells; format: cell-based; details: cultured >4 weeks in the presence of FSK; not readily detected in absence; 2 donor cultures
Protocol: as §1
Exponentially growing organoids were cultured for at least 5 days in the presence or absence of FSK. Then, organoids were dissociated into single cells using Accutase, resuspended in DMEM+2% FBS and incubated with Lgr5 antibody (AP2745d, Abgent) for 45 min. […] Cells were analyzed with a BD FACS Calibur (Becton-Dickinson); FSC: propidium iodide was used to label dead cells for exclusion and pulse-width gating to exclude cell doublets.

cAMP pathway = details: compared with 8-BR-cAMP and forskolin; cited from earlier work
[3] = test system: human liver organoid cultures (ALB, CYP3A4 expression); details: hepatocytes
[4] = culture medium supplemented with A8301 combined with FSK, split ratio 1:4-1:6 every 7-10 days

Molecule: Cc1cccc(-c2nn(C(=S)Nc3ccccc3)cc2-c2ccnc3ccccc23)n1 [A83-01, 3-(6-Methyl-2-pyridinyl)-N-phenyl-4-(4-quinolinyl)-1H-pyrazole-1-carbothioamide]
- long-term expansion outcome (human liver organoids; medium supplemented with A8301 only (no FSK)): arrested proliferation after some weeks in culture

Molecule: C=C[C@@]1(C)CC(=O)[C@]2(O)[C@@]3(C)[C@@H](O)CCC(C)(C)[C@@H]3[C@H](O)[C@H](OC(C)=O)[C@@]2(C)O1 [FSK, forskolin]
- number of passages the cultures were able to grow (human liver organoids; [4]): > 18 passages
- time the cultures were able to grow (human liver organoids; [4]): > 5 months
- LGR5 expression levels, upregulation upon treatment [1]: 2-3 ×
- Lgr5 cells as % of the culture population [2]: 1-3%

Molecule: C=C[C@@]1(C)CC(=O)[C@]2(O)[C@@]3(C)[C@@H](O)CCC(C)(C)[C@@H]3[C@H](OC(=O)CCN(C)C)[C@H](OC(C)=O)[C@@]2(C)O1.Cl [NKH477]
- relative potency as cAMP pathway activator (cAMP pathway): generally more potent than 8-BR-CAMP and forskolin

B1: BMP7: BMP pathway activator; induces the phosphorylation of SMAD1 and SMAD5 (protein, UniProt P18075 293-431, looked up)
Bone morphogenetic protein 7: STGSKQRSQNRSKTPKNQEALRMANVAENSSSDQRQACKKHELYVSFRDLGWQDWIIAPEGYAAYYCEGECAFPLNSYMNATNHAIVQTLVHFINPETVPKPCCAPTQLNAISVLYFDDSSNVILKKYRNMVVRACGCH
- effect on expression of hepatocyte markers ALB and CYP3A4 [3]: slightly facilitated the expression of hepatocyte markers ALB and CYP3A4
- long-term expansion outcome (human liver organoids; medium supplemented with BMP7 and A8301 (no FSK)): arrested proliferation after some weeks in culture
